Measured values published in US4968705A, “Benzopyrrolidinone compounds as bronchospastic agents” (Adir et Cie, priority 1988, dated 1990).
Where two headings read alike, the source gives them in different places.

Experiments:
[1] = system: mice's ear edema; test: Mice's ear edema (technique of Young et al.); assay type: in vivo; details: for decrease of the mice's ear edema: per os, 36 micromole/kg
Protocol: The compounds of the present invention were also tested on the mice's ear edema according to the technique of John M. YOUNG et al., Journal of […], 82, 363-371 (1984). Administrated, per os, at a dose of 36 micromole/kg, the derivatives of the present invention provoke a decrease of the mice's ear edema of from 15 to 50% according to the compounds.

[2] = system: histamine-induced bronchoconstriction; test: Armitage test: histamine-induced bronchoconstriction test in guinea pigs; assay type: in vivo; details: guinea pig p.o.
From the text: (§1) The compounds of the invention and the prior art product fenspiride of the prior art used as reference substance were subjected to various tests described in ARZNEIMITTEL-FORSCHUNG/DRUG RESEARCH 37 (II), 12, 1354-1355 (1987), especially
the histamine-induced bronchoconstriction test in guinea pigs, […]

[3] = system: experimental asthma induced in guinea pigs by antigen aerosols; test: Passive shock in guinea pigs (experimental asthma induced by antigen aerosols); assay type: in vivo; details: Cavia porcellus, read-out: Passive shock guinea pig ED50
From the text: to the determination of the passive shock resulting from the study of experimental asthma induced in guinea pigs by antigen aerosols and […]

[4] = target: purified phosphodiesterase; test: In vitro inhibition of purified phosphodiesterase; assay type: biochemical
From the text: as §1
to assays in vitro on the inhibition of purified phosphodiesterase.

[5] = Toxicity LD50 in mouse; assay type: in vivo; details: in vivo
From the text: as §1

[6] = system: mouse; test: Toxicity LD50 in mouse; assay type: in vivo; details: PO
From the text: as §1

[7] = Cavia porcellus, po, dose 1 mg/kg, read-out: Armitage test % protection
[8] = basal, read-out: Phosphodiesterase inhibition IC50 basal (converted)
[9] = +calmoduline, read-out: Phosphodiesterase inhibition IC50 +calmoduline (converted)
[10] = Cavia porcellus, po, read-out: Armitage test % protection

| SMILES | ED50 ([3]; guinea pig, PO) [mg/kg] | IC50 [4, 8] [µM] | LD50 ([5]; PO) [mg/kg] | IC50 [4, 9] [µM] | inhibition in vivo at 5 mg/kg [2, 10] [%] | also measured |
| --- | --- | --- | --- | --- | --- | --- |
| O=c1[nH]c2ccccc2n1CCN1CCC(OC(c2ccccc2)c2ccccc2)CC1 [1[(2-oxo-3-benzimidazolinyl-ethyl]-4-benzhydryloxy-piperidine] | – | – | – | – | – | decrease of the mice's ear edema [1]: lower than 15% |
| O=C1Cc2ccccc2N1CCN1CCC(OC(c2ccccc2)c2ccccc2)CC1 [Example 1, 1-(4-benzhydryloxypiperidinoethyl)oxindole] | – | – | – | – | – | inhibition in vivo at 1 mg/kg [2, 7]: 66%; ED50 ([3]; ip): 2.5 mg/kg; ED50 ([3]; po): 5 mg/kg; Phosphodiesterase inhibition IC50 basal ([4]; basal): inactif; LD50 ([5]; IP): ~200 mg/kg |
| O=C1c2ccccc2CN1CCN1CCC(OC(c2ccccc2)c2ccccc2)CC1 [Example 2, 2-(4-benzhydryloxypiperidinoethyl)isoxindole] | 2.5 to 5 | > 100 | > 800 | – | – | inhibition in vivo at 1 mg/kg [2, 7]: 36% |
| O=C1Cc2ccccc2N1CCN1CCC(OC(c2ccc(F)cc2)c2ccc(F)cc2)CC1 [Example 3, 1-(4-bis-para-fluorobenzhydryloxypiperidinoethyl)oxindole] | – | – | < 800 | – | – | inhibition in vivo at 1 mg/kg [2, 7]: 47.6%; Phosphodiesterase inhibition IC50 basal ([4]; basal): inactif |
| O=C1Cc2ccccc2N1CCCN1CCC(C(c2ccc(F)cc2)c2ccc(F)cc2)CC1 [Example 4, 1-(4-bis-para-fluorobenzhydrylpiperidinopropyl)-oxindole] | – | – | – | – | – | inhibition in vivo at 20 mg/kg ([2]; Cavia porcellus, po, dose 20 mg/kg, read-out: Armitage test % protection): 59.4%; ED50 ([3]; guinea pig, IP): 40 mg/kg; LD50 ([5]; IP): ~200 mg/kg |
| O=C1Cc2ccccc2N1CCCN1CCC(OC(c2ccccc2)c2ccccc2)CC1 [Example 5, 1-(4-benzhydryloxypiperidinopropyl)-oxindole] | – | > 100 | – | 100 | – | inhibition in vivo at 1 mg/kg [2, 7]: 72.1% |
| O=C1Cc2cccc(F)c2N1CCN1CCC(OC(c2ccccc2)c2ccccc2)CC1 [Example 6, 1-(4-benzhydryloxypiperidinoethyl)-7-fluoro-oxindole] | – | – | – | – | – | inhibition in vivo at 1 mg/kg [2, 7]: 36.6%; Phosphodiesterase inhibition IC50 basal ([4]; basal): inactif |
| O=C1Cc2ccccc2N1CCN1CCC(OC(c2ccc(F)cc2)c2ccc(F)cc2)CC1 [Example 7, 1-(4-bis-para-fluorobenzhydryloxypiperidinoethyl)oxindole] | – | – | – | – | – | Armitage test % protection ([2]; dose 1 mg/kg): +50%; ED50 ([3]; po): 2.5 to 5 mg/kg; Phosphodiesterase inhibition IC50 basal ([4]; basal): inactif; Toxicity LD50 [6]: < 800 mg/kg |
| O=C1Cc2cc(F)ccc2N1CCN1CCC(OC(c2ccccc2)c2ccccc2)CC1 [Example 8, 1-(4-benzhydryloxypiperidinoethyl)-5-fluoro-oxindole] | – | > 10 | – | – | – | inhibition in vivo at 1 mg/kg [2, 7]: 72%; ED50 ([3]; po): 2.5 to 5 mg/kg |
| O=C1Cc2ccccc2N1CCN1CCC(SC(c2ccccc2)c2ccccc2)CC1 [Example 9, 1-(4-benzhydrylthiopiperidinoethyl)-oxindole] | – | – | – | – | 60 | – |
| O=C1Cc2ccccc2N1CCN1CCC(C(c2ccc(F)cc2)c2ccc(F)cc2)CC1 [Example 10, 1-(4-bis-para-fluorobenzhydrylpiperidinoethyl)oxindole] | – | > 100 | < 800 | 100 | 78 | – |
| COc1cc2c(cc1OC)C(=O)N(CCCN1CCC(OC(c3ccccc3)c3ccccc3)CC1)C2 [Example 12, 2-(4-benzhydryloxypiperidinopropyl)-5,6-dimethoxyisoxindole] | 20 | 70 | 800 | 20 | 79 | – |
| CC1(C)C(=O)N(CCN2CCC(OC(c3ccccc3)c3ccccc3)CC2)c2ccccc21 [Example 14, 1-(4-benzhydryloxypiperidinoethyl)-3,3-dimethyloxindole] | > 40 | 30 | > 800 | 20 | 70 | – |
| CC(C)C1C(=O)N(CCN2CCC(OC(c3ccccc3)c3ccccc3)CC2)c2ccccc21 (stereo not drawn) [Example 15, 1-(4-benzhydryloxypiperidinoethyl)-3-isopropyloxindole] | 5 | 100 | > 800 | 30 | 50 | – |
| O=C1c2ccccc2CN1CCCN1CCC(OC(c2ccccc2)c2ccccc2)CC1 [Example 16, 2-(4-benzhydryloxypiperidinopropyl)-isoxindole] | 5 | > 100 | > 800 | 30 | 82 | – |
| O=C1Cc2cc(F)ccc2N1CCCN1CCC(OC(c2ccccc2)c2ccccc2)CC1 [Example 17, 1-(4-benzhydryloxypiperidinopropyl)-5-fluoro-oxindole] | 40 | > 100 | > 800 | 10 | 75 | – |
| O=C1c2ccc(F)cc2CN1CCN1CCC(OC(c2ccccc2)c2ccccc2)CC1 [Example 18, 2-(4-benzhydryloxypiperidinoethyl)-5-fluoro-isoxindole] | 40 | 100 | > 800 | 20 | 68 | – |
| O=C1c2ccc(F)cc2CN1CCCN1CCC(OC(c2ccccc2)c2ccccc2)CC1 [Example 19, 2-(4-benzhydryloxypiperidinopropyl)-5-fluoro-isoxindole] | 10 | > 100 | > 800 | 20 | 68 | – |
| O=C1c2cc(F)ccc2CN1CCN1CCC(OC(c2ccccc2)c2ccccc2)CC1 [Example 20, 2-(4-benzhydryloxypiperidinoethyl)-6-fluoro-isoxindole] | 40 | > 100 | > 800 | 20 | 43 | – |
| O=C1NCC2(CCN(CCc3ccccc3)CC2)O1 [Fenspiride, reference compound] | 10 | > 100 | > 800 | > 100 | – | inhibition in vivo at 2.5 mg/kg ([2]; Cavia porcellus, po, dose 2,5 mg/kg, read-out: Armitage test % protection): 69%; ED50 ([3]; guinea pig, IP): 5 mg/kg; activity on mice's ear edema (in words) ([1]; same conditions and same dose (per os, 36 micromole/kg)): no activity |
| O=c1[nH]c2ccccc2n1CCCN1CCN(C(c2ccccc2)c2ccccc2)CC1 [oxatomide] | – | – | – | – | – | decrease of the mice's ear edema [1]: lower than 15% |
